Reference: patent publication US8946142B2, “Beta-arrestin effectors and compositions and methods of use thereof” (Trevena, Inc., priority 2012, dated 2015)
Where a SMILES comes first, the peptide text is derived from it. [ ]: non-standard residue; d: D form. Tle = CC(C)(C)[C@H](N)C(=O)O; Ac6c = NC1(C(=O)O)CCCCC1; Ac5c = NC1(C(=O)O)CCCC1; Sar = CNCC(=O)O

Experiments:
Type in all cases: cell-based
[1] = target: T1, human AT1R (Homo sapiens, UniProt P30556); assay: beta-arrestin2 recruitment assay (PathHunter), human AT1R; settings: for Emax: 1 h, read-out: Span (relative to hAngII)
T1 sequence (P30556 1-359): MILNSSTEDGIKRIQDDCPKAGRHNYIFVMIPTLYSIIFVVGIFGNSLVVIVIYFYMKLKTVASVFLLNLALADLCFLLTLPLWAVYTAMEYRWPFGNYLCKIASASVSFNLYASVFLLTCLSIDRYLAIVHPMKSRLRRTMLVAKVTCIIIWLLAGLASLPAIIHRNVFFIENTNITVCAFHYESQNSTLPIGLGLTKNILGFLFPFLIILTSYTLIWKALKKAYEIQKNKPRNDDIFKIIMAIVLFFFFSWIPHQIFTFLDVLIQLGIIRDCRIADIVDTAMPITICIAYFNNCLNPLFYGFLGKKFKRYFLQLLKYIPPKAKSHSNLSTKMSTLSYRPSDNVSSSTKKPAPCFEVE
Procedure, shortened: (§1)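 PathHunter enzyme-complementation assay in HEK293 cells stably expressing ProLink-tagged human AT1R or rat AT1aR; peptides (final 100 μM–1 pM) in HBSS/20 mM HEPES for 60 min at 37 °C. Detection reagent 60 min at room temperature; β-arrestin-2 recruitment read as relative luminescence.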

[2] = target: T2, rat AT1aR (Rattus norvegicus, UniProt P25095); assay: beta-arrestin2 recruitment assay (PathHunter), rat AT1aR; settings: for Emax: 1 h, read-out: Span (relative to hAngII)
T2 sequence (P25095 1-359): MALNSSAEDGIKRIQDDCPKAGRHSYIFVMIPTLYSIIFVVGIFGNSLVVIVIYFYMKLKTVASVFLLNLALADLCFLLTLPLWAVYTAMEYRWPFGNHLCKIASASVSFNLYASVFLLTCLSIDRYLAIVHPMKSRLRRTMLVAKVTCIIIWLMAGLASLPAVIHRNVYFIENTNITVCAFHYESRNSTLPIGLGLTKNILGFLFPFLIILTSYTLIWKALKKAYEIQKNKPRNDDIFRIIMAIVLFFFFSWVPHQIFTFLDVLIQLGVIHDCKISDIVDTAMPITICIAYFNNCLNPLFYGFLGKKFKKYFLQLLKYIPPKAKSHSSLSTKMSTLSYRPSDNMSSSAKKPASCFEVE
Procedure, shortened: as §1

[3] = target: T1, human AT1R; assay: IP1 accumulation assay (IP1 G-protein assay), human AT1R; settings: for Emax: read-out: Span (relative to hAngII)
[4] = target: T2, rat AT1aR; assay: IP1 accumulation assay (IP1 G-protein assay), rat AT1aR; settings: for Emax: read-out: Span (relative to hAngII)
Procedure: A secondary measure of G protein coupling efficacy was also performed. IP3 is generated by activation of phospholipase C by Gα-q. IP3 is degraded to IP1, which can be forced to accumulate in cells by blocking degradation with lithium chloride. Thus we measured accumulation of IP1 to determine ligand efficacy for G protein activation.
IP1 accumulation generated by human and rat angiotensin 2 type 1 receptor (human AT1R and rat AT1aR, respectively) was measured with IP-One Tb kits purchased from Cisbio and used per the manufacturer's instructions. Clonal stably transfected cell lines expressing human AT1TR or rat AT1aR were used for all experiments.
For assays, 4,000-8,000 cells were seeded per well in 384-well small-volume microplates “HiBase” small-volume plate in volumes of 20 uL and allowed to grow overnight at 37° C. in 5% CO2. Cell growth media was then replaced with stimulation buffer supplied by Cisbio containing 50 mM lithium chloride. […] For agonist detection, peptides were then further diluted in stimulation buffer to add peptide to the cells to reach final concentrations ranging from 100 uM to 1 pM. Following addition of peptides, cells were incubated at 37° C. in 5% CO2 for 30 minutes and then lysed with 4 uL of pre-mixed HTRF IP-One reagents diluted per manufacturer's instructions (Cisbio). Microplates were incubated for 60-90 minutes at room temperature and then time-resolved fluorescence intensities were measured using a PHERAstar Plus microplate reader from BMG Labtech. IP1 accumulation was measured as change in ratio of time-resolved fluorescent intensities measured at 665 nm and 620 nm.

Compound | Emax [1] | EC50 ([1]; read-out: EC50) | Emax [2] | EC50 ([2]; read-out: EC50) | EC50 ([3]; read-out: EC50) | Emax [3] | EC50 ([3]; read-out: pEC50 (converted)) | EC50 ([4]; read-out: EC50) | Emax [4] | EC50 ([1]; read-out: pEC50 (converted)) | EC50 ([2]; read-out: pEC50 (converted)) | EC50 ([4]; read-out: pEC50 (converted))
CNCC(=O)N[C@@H](CCCNC(=N)N)C(=O)N[C@H](C(=O)N[C@@H](Cc1ccc(O)cc1)C(=O)NC1(C(=O)N[C@@H](Cc2c[nH]cn2)C(=O)N2CCC[C@H]2C(=O)N[C@@H](Cc2ccccc2)C(=O)O)CCCCC1)C(C)C [SEQ ID NO: 17, Sar-Arg-Val-Tyr-cyHex-His-Pro-Phe] (H-[Sar]RVY[Ac6c]HPF-OH; N-terminus and C-terminus assumed) | > 101% | > 3.2 nM | < 105% | 3.2 nM | < 1.3 nM | < 103% | > 0.631 nM | > 0.6 nM | > 104% | – | – | –
CC[C@H](C)[C@H](NC(=O)[C@@H]1CCCN1C(=O)[C@H](Cc1c[nH]cn1)NC(=O)C1(NC(=O)[C@H](Cc2ccc(O)cc2)NC(=O)[C@@H](NC(=O)[C@H](CCCN=C(N)N)NC(=O)CNC)C(C)C)CCCC1)C(=O)O [SEQ ID NO: 18, Sar-Arg-Val-Tyr-cyPen-His-Pro-Ile] (H-[Sar]RVY[Ac5c]HPI-OH) | – | > 3.2 nM | – | > 3.2 nM | > 1.3 nM | – | > 0.631 nM | > 0.6 nM | – | > 3.16 nM | > 3.16 nM | > 0.631 nM
CNCC(=O)N[C@@H](CCCNC(=N)N)C(=O)N[C@H](C(=O)N[C@@H](Cc1ccc(O)cc1)C(=O)NC1(C(=O)N[C@@H](Cc2c[nH]cn2)C(=O)N2CCC[C@H]2C(=O)N[C@@H](C)C(=O)O)CCCCC1)C(C)C [SEQ ID NO: 2, Sar-Arg-Val-Tyr-cyHex-His-Pro-Ala] | < 101% | > 3.2 nM | < 105% | > 3.2 nM | 10000 nM | < 103% | > 0.631 nM | > 0.6 nM | – | – | – | –
CNCC(=O)N[C@@H](CCCNC(=N)N)C(=O)N[C@H](C(=O)N[C@@H](Cc1ccc(O)cc1)C(=O)N1CCC[C@H]1C(=O)N[C@@H](Cc1c[nH]cn1)C(=O)N1CCC[C@H]1C(=O)N[C@H](C(=O)O)C(C)C)C(C)C [SEQ ID NO: 6, Sar-Arg-Val-Tyr-Pro-His-Pro-Val] (H-[Sar]RVYPHPV-OH; N-terminus and C-terminus assumed) | < 101% | – | < 105% | – | – | < 103% | – | – | < 104% | – | – | –
CNCC(=O)N[C@@H](CCCNC(=N)N)C(=O)N[C@H](C(=O)N[C@@H](Cc1ccc(O)cc1)C(=O)NC1(C(=O)N[C@@H](Cc2c[nH]cn2)C(=O)N2CCC[C@H]2C(=O)N[C@H](C(=O)O)C(C)(C)C)CCCCC1)C(C)C [SEQ ID NO: 56, Sar-Arg-Val-Tyr-cyHex-His-Pro-AA02] (H-[Sar]RVY[Ac6c]HP[Tle]-OH) | < 101% | > 3.2 nM | < 105% | > 3.2 nM | > 1.3 nM | < 103% | > 0.631 nM | > 0.6 nM | < 104% | > 3.16 nM | > 3.16 nM | > 0.631 nM
CNCC(=O)N[C@@H](CCCNC(=N)N)C(=O)N[C@H](C(=O)N[C@@H](Cc1ccc(O)cc1)C(=O)NC1(C(=O)N[C@@H](Cc2c[nH]cn2)C(=O)N2CCC[C@H]2C(=O)N[C@H](C(=O)O)[C@@H](C)O)CCCCC1)C(C)C [SEQ ID NO: 14, Sar-Arg-Val-Tyr-cyHex-His-Pro-Thr] (H-[Sar]RVY[Ac6c]HPT-OH) | < 101% | > 3.2 nM | < 105% | > 3.2 nM | > 1.3 nM | – | > 0.631 nM | > 0.6 nM | – | > 3.16 nM | > 3.16 nM | > 0.631 nM
CNCC(=O)N[C@@H](CCCNC(=N)N)C(=O)N[C@H](C(=O)N[C@@H](Cc1ccc(O)cc1)C(=O)NC1(C(=O)N[C@@H](Cc2c[nH]cn2)C(=O)N2CCC[C@H]2C(=O)N[C@@H](CCSC)C(=O)O)CCCC1)C(C)C [SEQ ID NO: 23, Sar-Arg-Val-Tyr-cyPen-His-Pro-Met] (H-[Sar]RVY[Ac5c]HPM-OH) | < 101% | > 3.2 nM | < 105% | > 3.2 nM | > 1.3 nM | < 103% | > 0.631 nM | > 0.6 nM | < 104% | > 3.16 nM | > 3.16 nM | > 0.631 nM
CNCC(=O)N[C@@H](CCCNC(=N)N)C(=O)N[C@H](C(=O)N[C@@H](Cc1ccc(O)cc1)C(=O)NC1(C(=O)N[C@@H](Cc2c[nH]cn2)C(=O)N2CCC[C@H]2C(=O)N[C@@H](CCSC)C(=O)O)CCCCC1)C(C)C [SEQ ID NO: 16, Sar-Arg-Val-Tyr-cyHex-His-Pro-Met] (H-[Sar]RVY[Ac6c]HPM-OH) | < 101% | > 3.2 nM | < 105% | > 3.2 nM | > 1.3 nM | < 103% | > 0.631 nM | > 0.6 nM | < 104% | > 3.16 nM | > 3.16 nM | > 0.631 nM
CC[C@H](C)[C@H](NC(=O)[C@@H]1CCCN1C(=O)[C@H](Cc1c[nH]cn1)NC(=O)C1(NC(=O)[C@H](Cc2ccc(O)cc2)NC(=O)[C@@H](NC(=O)[C@H](CCCNC(=N)N)NC(=O)CNC)C(C)C)CCCC1)C(=O)O [SEQ ID NO: 18, Sar-Arg-Val-Tyr-cyPen-His-Pro-Ile] (H-[Sar]RVY[Ac5c]HPI-OH) | < 101% | – | < 105% | – | – | < 103% | – | – | < 104% | – | – | –
CNCC(=O)N[C@@H](CCCNC(=N)N)C(=O)N[C@H](C(=O)N[C@@H](Cc1ccc(O)cc1)C(=O)NC1(C(=O)N[C@@H](Cc2c[nH]cn2)C(=O)N2CCC[C@H]2C(=O)N[C@@H](CC(C)C)C(=O)O)CCCCC1)C(C)C [SEQ ID NO: 12, Sar-Arg-Val-Tyr-cyHex-His-Pro-Leu] (H-[Sar]RVY[Ac6c]HPL-OH) | < 101% | > 3.2 nM | < 105% | > 3.2 nM | > 1.3 nM | < 103% | > 0.631 nM | > 0.6 nM | < 104% | > 3.16 nM | > 3.16 nM | > 0.631 nM
